This note sets out measurements from patent publication EP4562004B1, “NOVEL 7-SUBSTITUTED INDOLE SULFONAMIDE DERIVATIVES” (F. Hoffmann-La Roche AG, priority 2022, dated 2024).

Molecules are shown by their SMILES.

Chain of human GPR17 short isoform (Q13304 29-367): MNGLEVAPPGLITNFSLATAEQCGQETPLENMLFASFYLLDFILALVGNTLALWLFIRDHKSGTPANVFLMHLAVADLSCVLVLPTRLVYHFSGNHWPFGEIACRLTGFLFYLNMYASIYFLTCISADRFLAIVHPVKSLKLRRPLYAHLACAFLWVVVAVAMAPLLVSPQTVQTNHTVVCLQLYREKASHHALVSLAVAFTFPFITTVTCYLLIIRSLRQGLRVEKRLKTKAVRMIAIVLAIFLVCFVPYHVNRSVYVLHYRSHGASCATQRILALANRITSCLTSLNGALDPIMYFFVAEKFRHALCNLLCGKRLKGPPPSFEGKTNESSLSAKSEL

The assay concerns the target human GPR17 short isoform (Homo sapiens, UniProt Q13304). Put plainly: GPR17 cAMP assay (antagonist mode, TR-FRET cAMP detection). The class given is cell-based. The note with it: CHO-K1 cells stably expressing human GPR17 short isoform; with EC80 concentration of agonist MDL29,951, IBMX 0.5mM, forskolin 15µM; normalized to reference antagonist; read-out: hGPR17 cAMP IC50. As to the method: CHO-K1 cells stably expressing vector containing untagged human GPR17 short isoform (Roche) were cultured at 37°C / 5% CO2 in DMEM (Dulbecco's Modified Eagle Medium):F-12 (1:1) supplemented with 10% foetal bovine serum and 400 µg/ml Geneticin.
Changes in intracellular cyclic adenosine monophosphate (cAMP) levels were quantified using the Nano-TRF Detection Assay kit (Roche Diagnostics, Cat. No. 05214386001). This assay allows for direct cAMP quantification in a homogeneous solution. cAMP is detected based on time-resolved fluorescence energy transfer (TR-FRET) and competitive binding of ruthenylated cAMP and endogenous cAMP to an anti-cAMP monoclonal antibody labeled with AlexaFluor-700. The Ruthenium complex serves as the FRET donor and transfers energy to AlexaFluor-700. The FRET signal is inversely proportional to the cAMP concentration.
CHO-GPR17S cells were detached with Accutase and resuspended in assay buffer consisting of Hank's Balanced Salt Solution (HBSS), 10mM HEPES (4-(2-hydroxyethyl) piperazine-1-ethanesulfonic acid solution) and 0.1% bovine serum albumin (pH 7.4). The cells were seeded in black 384-well plates (Corning) at a density of 10'000 cells / 20µl assay buffer until the addition of compounds.
Test antagonist compounds were serially diluted in dimethyl sulfoxide (DMSO) and spotted in 384-well plates. The compounds were then diluted in HBSS buffer supplemented with an EC80 concentration of MDL29,951 (3-(2-Carboxy-4,6-dichloroindol-3-yl)propionic acid) (GPR17 agonist) plus 3-Isobutyl-1-methylxanthine (IBMX) (0.5mM final concentration) and added to the cells at room temperature. Forskolin (15µM final concentration) was added 5 minutes after the test compounds and the cells were incubated at room temperature for 30 minutes. The assay was stopped by adding cAMP detection mix (containing detergents for cell lysis) for 90 minutes at room temperature.
Cellular cAMP was measured using a Paradigm reader (Molecular Devices). The raw data was used to calculate the FRET signal based on the assay's P-factor as per cAMP kit instructions. The data was normalized to the maximal activity of a reference antagonist and dose response curves were fitted to the percent activity of the test compounds using a sigmoidal dose response model (Genedata Screener).
Results in the hGPR17 cAMP assay are provided for compounds of formula I in Table 1 Table 1: […]
(Cyclic AMP is a second messenger, typically raised through Gs and lowered through Gi signalling.)
The IC50 is the concentration at which inhibition is half-maximal. In the case of `COc1nc(NS(=O)(=O)c2c[nH]c3c(-n4ccc(C)n4)cccc23)nc(OC)c1CC(F)F` [Example 1, N-[5-(2,2-difluoroethyl)-4,6-dimethoxy-pyrimidin-2-yl]-7-(3-methylpyrazol-1-yl)-1H-indole-3-sulfonamide], the IC50 was determined as 68 nM.

`COc1nc(NS(=O)(=O)c2c[nH]c3c(-n4nc(C)cc4C)cccc23)nc(OC)c1CC(F)F` [Example 2, N-[5-(2,2-difluoroethyl)-4,6-dimethoxy-pyrimidin-2-yl]-7-(3,5-dimethylpyrazol-1-yl)-1H-indole-3-sulfonamide]: the IC50 is 32 nM.

As to `COc1nc(NS(=O)(=O)c2c[nH]c3c(-n4ccnc4)cccc23)nc(OC)c1CC(F)F` [Example 3, N-[5-(2,2-difluoroethyl)-4,6-dimethoxy-pyrimidin-2-yl]-7-imidazol-1-yl-1H-indole-3-sulfonamide], the IC50 was 300 nM.

Turning to `COc1nc(NS(=O)(=O)c2c[nH]c3c(-n4cccn4)c(Cl)ccc23)nc(OC)c1CC(F)F` [Example 4, 6-chloro-N-[5-(2,2-difluoroethyl)-4,6-dimethoxy-pyrimidin-2-yl]-7-pyrazol-1-yl-1H-indole-3-sulfonamide], the IC50 is 22 nM.

For the compound `COc1nc(NS(=O)(=O)c2c[nH]c3c(-n4ccnc4C)cccc23)nc(OC)c1CC(F)F` [Example 5, N-[5-(2,2-difluoroethyl)-4,6-dimethoxy-pyrimidin-2-yl]-7-(2-methylimidazol-1-yl)-1H-indole-3-sulfonamide], the half-maximal inhibitory concentration (IC50) amounted to 48 nM.

Turning to `COc1nc(NS(=O)(=O)c2c[nH]c3c(-n4ccnc4)c(Cl)ccc23)nc(OC)c1OCC(F)F` [Example 6, 6-chloro-N-[5-(2,2-difluoroethoxy)-4,6-dimethoxy-pyrimidin-2-yl]-7-imidazol-1-yl-1H-indole-3-sulfonamide], the IC50 turned out to be 50 nM.

As for `COc1nc(NS(=O)(=O)c2c[nH]c3c(-n4nccn4)c(Cl)ccc23)nc(OC)c1CC(F)F` [Example 7, 6-chloro-N-[5-(2,2-difluoroethyl)-4,6-dimethoxy-pyrimidin-2-yl]-7-(triazol-2-yl)-1H-indole-3-sulfonamide], the IC50 is 21 nM.

Regarding `COc1nc(NS(=O)(=O)c2c[nH]c3c(-n4ccnc4)c(Cl)ccc23)ncc1CC(F)F` [Example 8, 6-chloro-N-[5-(2,2-difluoroethyl)-4-methoxy-pyrimidin-2-yl]-7-imidazol-1-yl-1H-indole-3-sulfonamide], the IC50 amounted to 248 nM.

With `COc1nc(NS(=O)(=O)c2c[nH]c3c(-n4nccn4)c(Cl)ccc23)nc(OC)c1OCC(F)F` [Example 9, 6-chloro-N-[5-(2,2-difluoroethoxy)-4,6-dimethoxy-pyrimidin-2-yl]-7-(triazol-2-yl)-1H-indole-3-sulfonamide], the IC50 came out at 32 nM.

For the compound `COc1nc(NS(=O)(=O)c2c[nH]c3c(-n4cnnc4)c(Cl)ccc23)nc(OC)c1CC(F)F` [Example 10, 6-chloro-N-[5-(2,2-difluoroethyl)-4,6-dimethoxy-pyrimidin-2-yl]-7-(1,2,4-triazol-4-yl)-1H-indole-3-sulfonamide], the IC50 came to 100 nM.

For the compound `COc1nc(NS(=O)(=O)c2c[nH]c3c(-n4nccn4)c(C(F)F)ccc23)nc(OC)c1OCC(F)F` [Example 11, N-[5-(2,2-difluoroethoxy)-4,6-dimethoxy-pyrimidin-2-yl]-6-(difluoromethyl)-7-(triazol-2-yl)-1H-indole-3-sulfonamide], the IC50 was 74 nM.

With `COc1nc(NS(=O)(=O)c2c[nH]c3c(-n4nccn4)c(Cl)ccc23)ncc1OCCF` [Example 12, 6-chloro-N-[5-(2-fluoroethoxy)-4-methoxy-pyrimidin-2-yl]-7-(triazol-2-yl)-1H-indole-3-sulfonamide], the IC50 was found to be 52 nM.

`COc1nc(NS(=O)(=O)c2c[nH]c3c(-n4nccn4)cccc23)nc(OC)c1CC(F)F` [Example 13, N-[5-(2,2-difluoroethyl)-4,6-dimethoxy-pyrimidin-2-yl]-7-(triazol-2-yl)-1H-indole-3-sulfonamide]: the IC50 turned out to be 203 nM.

As for `COc1nc(NS(=O)(=O)c2c[nH]c3c(-n4nccn4)c(Cl)ccc23)nc(OC)c1OCCF` [Example 14, 6-chloro-N-[5-(2-fluoroethoxy)-4,6-dimethoxy-pyrimidin-2-yl]-7-(triazol-2-yl)-1H-indole-3-sulfonamide], the IC50 came out at 28 nM.

With `COc1nc(NS(=O)(=O)c2c[nH]c3c(-n4nccn4)c(Cl)ccc23)nc(OC)c1OC(F)F` [Example 15, 6-chloro-N-[5-(difluoromethoxy)-4,6-dimethoxy-pyrimidin-2-yl]-7-(triazol-2-yl)-1H-indole-3-sulfonamide], the IC50 was 25 nM.

Regarding `COc1nc(NS(=O)(=O)c2c[nH]c3c(-n4nccn4)c(Cl)ccc23)nc(OC)c1CC(F)CF` (stereo not shown) [Example 16, 6-chloro-N-[5-(2,3-difluoropropyl)-4,6-dimethoxy-pyrimidin-2-yl]-7-(triazol-2-yl)-1H-indole-3-sulfonamide], the IC50 is 24 nM.

As for `COc1nc(NS(=O)(=O)c2c[nH]c3c(-n4nccn4)c(Cl)ccc23)nc(OC)c1CCC(F)F` [Example 17, 6-chloro-N-[5-(3,3-difluoropropyl)-4,6-dimethoxy-pyrimidin-2-yl]-7-(triazol-2-yl)-1H-indole-3-sulfonamide], the IC50 turned out to be 24 nM.

As for `COc1nc(NS(=O)(=O)c2c[nH]c3c(-n4nccn4)c(Cl)ccc23)nc(OC)c1C1CC1C#N` (stereo not shown) [Example 18, 6-chloro-N-[5-(2-cyanocyclopropyl)-4,6-dimethoxy-pyrimidin-2-yl]-7-(triazol-2-yl)-1H-indole-3-sulfonamide], the IC50 worked out at 25 nM.

Consider `COc1nc(NS(=O)(=O)c2c[nH]c3c(-n4nccn4)cccc23)nc(OC)c1OCCF` [Example 19, N-[5-(2-fluoroethoxy)-4,6-dimethoxy-pyrimidin-2-yl]-7-(triazol-2-yl)-1H-indole-3-sulfonamide], for which the IC50 is 316 nM.

Turning to `COc1nc(NS(=O)(=O)c2c[nH]c3c(-n4nccn4)cccc23)nc(OC)c1OCC(F)F` [Example 20, N-[5-(2,2-difluoroethoxy)-4,6-dimethoxy-pyrimidin-2-yl]-7-(triazol-2-yl)-1H-indole-3-sulfonamide], the half-maximal inhibitory concentration (IC50) came out at 447 nM.

Turning to `COc1nc(NS(=O)(=O)c2c[nH]c3c(-n4nccn4)cccc23)nc(OC)c1C1CC1C#N` (stereo not shown) [Example 21, N-[5-(2-cyanocyclopropyl)-4,6-dimethoxy-pyrimidin-2-yl]-7-(triazol-2-yl)-1H-indole-3-sulfonamide], the IC50 is 195 nM.

Turning to `COc1nc(NS(=O)(=O)c2c[nH]c3c(-n4nccn4)c(C)ccc23)nc(OC)c1CC(F)F` [Example 22, N-[5-(2,2-difluoroethyl)-4,6-dimethoxy-pyrimidin-2-yl]-6-methyl-7-(triazol-2-yl)-1H-indole-3-sulfonamide], the IC50 was 21 nM.

On to `COc1nc(NS(=O)(=O)c2c[nH]c3c(-n4nccn4)c(C)ccc23)nc(OC)c1OCCF` [Example 23, N-[5-(2-fluoroethoxy)-4,6-dimethoxy-pyrimidin-2-yl]-6-methyl-7-(triazol-2-yl)-1H-indole-3-sulfonamide], for which the concentration for half-maximal inhibition (IC50) was 35 nM.

Turning to `COc1nc(NS(=O)(=O)c2c[nH]c3c(-n4nccn4)c(C)ccc23)nc(OC)c1OC(F)F` [Example 24, N-[5-(difluoromethoxy)-4,6-dimethoxy-pyrimidin-2-yl]-6-methyl-7-(triazol-2-yl)-1H-indole-3-sulfonamide], the half-inhibitory concentration (IC50) worked out at 38 nM.

For the compound `COc1nc(NS(=O)(=O)c2c[nH]c3c(-n4nccn4)c(C)ccc23)nc(OC)c1OCC(F)F` [Example 25, N-[5-(2,2-difluoroethoxy)-4,6-dimethoxy-pyrimidin-2-yl]-6-methyl-7-(triazol-2-yl)-1H-indole-3-sulfonamide], the IC50 stood at 34 nM.

As to `COc1nc(NS(=O)(=O)c2c[nH]c3c(-n4nccn4)c(C)ccc23)nc(OC)c1C1CC1C#N` (stereo not shown) [Example 26, N-[5-(2-cyanocyclopropyl)-4,6-dimethoxy-pyrimidin-2-yl]-6-methyl-7-(triazol-2-yl)-1H-indole-3-sulfonamide], the IC50 was 25 nM.

As for `COc1nc(NS(=O)(=O)c2c[nH]c3c(-n4nccn4)c(Br)ccc23)nc(OC)c1CC(F)F` [Example 27, 6-bromo-N-[5-(2,2-difluoroethyl)-4,6-dimethoxy-pyrimidin-2-yl]-7-(triazol-2-yl)-1H-indole-3-sulfonamide], the IC50 came out at 19 nM.

Consider `COc1nc(NS(=O)(=O)c2c[nH]c3c(-n4nccn4)c(Br)ccc23)nc(OC)c1OCCF` [Example 28, 6-bromo-N-[5-(2-fluoroethoxy)-4,6-dimethoxy-pyrimidin-2-yl]-7-(triazol-2-yl)-1H-indole-3-sulfonamide], for which the IC50 came to 27 nM.
